According to US8906381B2, “Immunonanotherapeutics that provide IGG humoral response without T-cell antigen” (Massachusetts Institute of Technology, priority 2008, dated 2014):

What was measured:
[1] = test system: anti-nicotine IgG; experiment: Anti-nicotine IgG in immunized mice (ELISA); format: in vivo, C57BL6 mice; settings: data of FIGS. 34 and 35
[2] = test system: CD4 T cells from OT-II donor mice; experiment: In vivo CD4 T cell activation (CFSE-labeled OT-II cells); set-up: species or system C57BL6J mice; settings: three days after footpad immunization; CpG adjuvant
Experimental: Subsequently, immunization experiments were performed by injecting one footpad with free OVA or with nanoparticles composed of either PLA or PLGA that encapsulated an equivalent amount of OVA as a model antigen. All antigenic mixtures also contained CpG (a TLR9 agonist) as an adjuvant. The animals were injected, sacrificed three days after immunization, and OT-II T cell activation was assessed by flow cytometry in single-cell suspensions from different tissues.
By contrast, activated T cells divide and in the process split the fluorescent dye evenly between the two daughter cells resulting in an incremental decrease in fluorescence intensity upon each successive division. Thus, the greater the left shift in CFSE, fluorescence the stronger T cells were activated.

For `CN1CCCC1c1cccnc1` (centres unmarked) [free nicotine, nicotine], the “production of nicotine antibodies” value [1] was “does not elicit the production of nicotine antibodies”.
With “free OVA: free chicken ovalbumin (OVA) model antigen, mixed with CpG adjuvant” the “local T cell proliferation in distal lymphoid tissues (brachial lymph node, spleen)” value [2] was “only undivided cells or cells with very low CFSE content”.
